Experimental data from publication PMC6609550, “Blockade of the forward Na^+/Ca^2+ exchanger suppresses the growth of glioblastoma cells through Ca^2+‐mediated cell death” (British Journal of Pharmacology, 2019).

Experiments:
[1] = tested on: U87‐Luc xenografts; assay: U87-luciferase intracranial xenograft, in vivo bioluminescent imaging; design: species or system athymic BALB/c nude mice; settings: 50 mg·kg^−1 p.o. once a day for 14 days, from 16 days after implantation; n = 5 mice per group
Procedure: The athymic BALB/c nude mice were anaesthetized by subjecting them to 3% isoflurane (RWD Life Science, Shenzhen, China) in a mixture of 30% O2 and 70% N2O. […] The mouse head was maintained within a stereotactic frame (RWD Life Science), allowing a precise and reproducible injection. The coordinate of the injection site was 0.5 mm anterior and 2.5 mm right from the bregma and at a depth of 3 mm. U87-Luc cells (COBIOER) were assessed by the trypan blue exclusion assay. Only cell suspensions with greater than 95% viability were used and implanted into the right striatum of nude mice. U87-Luc cells (5 × 10^5 in 5-μl PBS) were inoculated into the right striatum of each mouse at a controlled flow rate of 0.5 μl·min^-1, and the total injection volume was about 5 μl. […] Tumours were measured by bioluminescence using an IVIS Spectrum CT Imaging System (PerkinElmer, Waltham, MA, USA), which captured the luminescence signal emitted from the engrafted tumour. […] Signal intensity was quantified within a region of interested over the head, as defined by Living Image software. All images represent 2-min exposure time, and the average number of photons·s^-1·cm^-2 per steradian were recorded. The data were analysed using Living Image 4.4.5 software (PerkinElmer, RRID:SCR_014247).

[2] = Cell viability assay (Cell Counting Kit-8), ranges given for U87 and U251 together; format: cell-based, Human; settings: human, U87 and U251 cells, read-out: Cell viability, % of control level
Procedure: (§1) Cell viability was determined by using a Cell Counting Kit‐8 (Dojindo, Japan). Briefly, cells were harvested from flasks and plated in 96‐well cell culture plates at 5 × 10^3 per well and cultured overnight. Cells were treated with test reagents for 72 hr. Control cells were treated with cell culture medium and measured at the same time point as treatment groups. CCK‐8 solution (10 μl) was added to each well of the 96‐well plates, and the cultures were incubated for 30 min at 37°C. Absorbance at 450 nm was measured using an automatic microplate reader (Molecular Devices, San Jose, CA, USA).

[3] = tested on: human astrocytes; assay: Cell viability of human astrocytes; format: cell-based; settings: 25 μM, 48 hr
Procedure: as §1
Figure 8 Impact of bepridil on human astrocytes (HA) and the Na^+/Ca^2+ exchanger (NCX) isoforms in each cell line. (a) Viability of U87, U251, and SF188 cells and HA after exposure to bepridil (25 μM, 48 hr); n = 5 independent tests in each group. (b) The bands of NCX1, NCX2, and NCX3 isoforms detected by Western blot analysis in the sample of HA and glioblastoma cell lines U87, U118, A172, U251, and SF188. (c) Representative recording of the NCX currents in HA and glioblastoma cell lines. (d) Viability of U87, U251, and SF188 cells and HA after exposure to KB‐R7943 (25 μM, 48 hr). n = 5 independent tests in each group

[4] = LC-MS analysis of brain homogenate after oral bepridil; format: in vivo, athymic BALB/c nude mice; settings: 50 mg·kg^−1 p.o., brain homogenate collected at 2 hr
Procedure: Athymic BALB/c nude mice were administered bepridil by oral gavage at doses of 50 mg·kg^−1 as described above. Two hours later, mice were killed, and the brain sample was homogenized using the tissue homogenizers (Bertin Instruments, Paris, France) in ice‐cold deionized water at a concentration of 3 ml·g^−1 tissue. Then, methanol with 0.1% formic acid was added to the brain homogenate in a 4:1 proportion (vol/vol) and centrifuged at 18,188× g and 4°C for 10 min to precipitate protein. The supernatant was transferred to a vial to be injected directly into the LC‐MS. The chromatographic system consisted of Shimadzu quaternary pump, vacuum degasser, and autosampler (Shimadzu, LC‐20ADXR, Tokyo, Japan) coupled to https://sciex.com/products/mass-spectrometers/triple-quad-systems, API‐4000 mass spectrometer (SCIEX, Redwood City, CA, USA). HPLC separation was performed on a Thermo Syncronis C8 column 100 × 2.1 mm, 5.0 μm. The mobile phase consisted of methanol (A) and water with 0.1% formic acid (B), measure time was 9 min per run. A flow rate of 0.3 ml·min^−1 was used using a gradient elution of 70% B at 1 min and 5–70% B between 1 and 5 min and maintained for 2 min at 5% B and back to 70% B at 7–7.1 min. […] The CE for bepridil was optimized to 30 V. The precursor‐to‐product ions (Q1 → Q3) selected for bepridil during quantitative optimization were (m/z) 367.1 → 84.3/184.3.

[5] = tested on: U87 and U251 cells; assay: Cell viability assay (Cell Counting Kit-8), ranges given for U87 and U251 together; format: cell-based, Human; settings: 72 hr
Procedure: as §1

Row | Structure (SMILES) | Growth of brain-grafted U87-Luc tumour (bioluminescence) [1] | viability at 72 h, 20 µM ([2]; 20 μM) [%] | viability at 72 h, 50 µM ([2]; 50 μM) [%] | viability at 72 h, 100 µM ([2]; 100 μM) [%] | Cytotoxicity in human astrocytes (viability) [3] | Crossing of the BBB into brain tissue [4] | Cell viability, % of control level ([5]; 20 μM) | Cell viability, % of control level ([5]; 50 μM) | Cell viability, % of control level ([5]; 100 μM)
1 | CC(C)COCC(CN(Cc1ccccc1)c1ccccc1)N1CCCC1 (stereo not shown) [Bepridil, N‐benzyl‐N‐(3‐isobutoxy‐2‐pyrrolidin‐1‐yl‐propyl)aniline] | successfully restrained tumour growth | 30 to 40 | 6 to 7 | 3 to 4 | did not generate apparent cytotoxicity | can cross the BBB and get into brain tissue |  |  | 
2 | CS(=O)(=O)O.N=C(N)SCCc1ccc(OCc2ccc([N+](=O)[O-])cc2)cc1 [KB‐R7943, 2‐[4‐[(4‐nitrophenyl)methoxy]phenyl]ethyl ester carbamimidothioic acid methanesulfonate] |  |  |  |  | deleterious to astrocytes |  | 50–60% | 7–18% | 2–3%
